# Source: patent US20240381872A1, “SUBSTITUTED 2,3-DIHYDRO[1,3]THIAZOLO[4,5-B]PYRIDINES, SALTS THEREOF AND THEIR USE AS HERBICIDALLY ACTIVE SUBSTANCES” (BAYER AKTIENGESELLSCHAFT, priority 2021, published 2024)
# What was measured:
# Type in all cases: in vivo
# [1] = test system: Kochia scoparia (KCHSC); experiment: Herbicidal post-emergence action, section B (Table B4); conditions: visual rating about 3 weeks after treatment vs untreated controls
# Method: (§1) Seeds of mono- and dicotyledonous weed plants were placed in plastic pots in sandy loam soil (doubly sown with in each case one species of mono- or dicotyledonous weed plants per pot), covered with soil and cultivated in a greenhouse under controlled growth conditions. 2 to 3 weeks after sowing, the test plants were treated at the one-leaf stage. The compounds of the invention, formulated in the form of wettable powders (WP) or as emulsion concentrates (EC), were applied onto the green parts of the plants as aqueous suspension or emulsion with addition of 0.5% additive at a water application rate of 600 liters per hectare (converted). After the test plants had been kept in the greenhouse under optimum growth conditions for about 3 weeks, the activity of the preparations was rated visually in comparison to untreated controls. For example, 100% activity=the plants have died, 0% activity=like control plants.
# [2] = test system: Stellaria media (STEME); experiment: Herbicidal pre-emergence action, section A (Table A9); conditions: application rate 1280 g/ha; for pest or weed control at 1280 g/ha: Stellaria media, 504 h, read-out: pre-emergence activity against STEME in %
# Excerpt: (§2) Seeds of mono- and dicotyledonous weed plants were sown in plastic pots (double sowings with one species of mono- and one species of dicotyledonous weed plants per pot), in sandy loam, and covered with soil. The compounds according to the invention, formulated in the form of wettable powders (WP) or as emulsifiable concentrates (EC), were applied to the surface of the covering soil as aqueous suspension or emulsion, with the addition of 0.5% of an additive, at an application rate of 600 l of water per hectare (converted). Following treatment, the pots were placed in a greenhouse and kept under optimum growth conditions for the test plants. The visual grading of the damage to the test plants was carried out after ca. 3 weeks in comparison to untreated controls (herbicidal effect in percent (%): 100% effect=plants have died off, 0% effect=as control plants).
# [3] = test system: Echinochloa crus-galli (ECHCG); experiment: Herbicidal pre-emergence action, section A (Table A3); conditions: application rate 1280 g/ha, visual grading after ca. 3 weeks vs untreated controls; for pest or weed control at 1280 g/ha: Echinochloa crus-galli, pre-emergence, 504 h, read-out: pre-emergence activity against ECHCG in %
# Excerpt: as §2
# [4] = test system: Amaranthus retroflexus (AMARE); experiment: Herbicidal post-emergence action, section B (Table B11); conditions: visual rating about 3 weeks after treatment vs untreated controls
# Method: as §1
# [5] = test system: Setaria viridis (SETVI); experiment: Herbicidal pre-emergence action, section A (Table A8)
# Excerpt: as §2
# [6] = test system: Amaranthus retroflexus (AMARE); experiment: Herbicidal pre-emergence action, section A (Table A11)
# Excerpt: as §2
# [7] = test system: Veronica persica (VERPE); experiment: Herbicidal post-emergence action, section B (Table B10); conditions: application rate 1280 g/ha, visual rating about 3 weeks after treatment vs untreated controls
# Method: as §1
# [8] = test system: Digitaria sanguinalis (DIGSA); experiment: Herbicidal pre-emergence action, section A (Table A12); conditions: application rate 1280 g/ha; for pest or weed control at 1280 g/ha: Digitaria sanguinalis, 504 h, read-out: pre-emergence activity against DIGSA in %
# Excerpt: as §2
# [9] = test system: Poa annua (POAAN); experiment: Herbicidal pre-emergence action, section A (Table A7); conditions: visual grading after ca. 3 weeks vs untreated controls; for pest or weed control at 1280 g/ha: application rate 1280 g/ha
# Excerpt: as §2
# [10] = test system: Kochia scoparia (KCHSC); experiment: Herbicidal pre-emergence action, section A (Table A4); conditions: visual grading after ca. 3 weeks vs untreated controls
# Excerpt: as §2
# [11] = test system: Stellaria media (STEME); experiment: Herbicidal post-emergence action, section B (Table B9); conditions: application rate 1280 g/ha, visual rating about 3 weeks after treatment vs untreated controls
# Method: as §1
# [12] = test system: Matricaria inodora (MATIN); experiment: Herbicidal pre-emergence action, section A (Table A6); conditions: Tripleurospermum inodorum, pre-emergence, 504 h; application rate 1280 g/ha; visual grading after ca. 3 weeks vs untreated controls; read-out: pre-emergence activity against MATIN in %
# Excerpt: as §2
# [13] = test system: Lolium rigidum (LOLRI); experiment: Herbicidal pre-emergence action, section A (Table A5); conditions: application rate 1280 g/ha, visual grading after ca. 3 weeks vs untreated controls; for pest or weed control at 1280 g/ha: Lolium rigidum, pre-emergence, 504 h, read-out: pre-emergence activity against LOLRI in %
# Excerpt: as §2
# [14] = test system: Poa annua (POAAN); experiment: Herbicidal post-emergence action, section B (Table B7); conditions: Poa annua, post-emergence, 504 h; application rate 1280 g/ha; visual rating about 3 weeks after treatment vs untreated controls; read-out: post-emergence activity against POAAN in %
# Method: as §1
# [15] = test system: Veronica persica (VERPE); experiment: Herbicidal pre-emergence action, section A (Table A10); conditions: Veronica persica, 504 h, application rate 1280 g/ha, read-out: pre-emergence activity against VERPE in %
# Excerpt: as §2
# [16] = Setaria viridis, 504 h, application rate 320 g/ha, read-out: pre-emergence activity against SETVI in %
# [17] = Poa annua, pre-emergence, 504 h, read-out: pre-emergence activity against POAAN in %
# [18] = Amaranthus retroflexus, 504 h, application rate 320 g/ha, read-out: pre-emergence activity against AMARE in %
structure (smiles),measurement,setting,value
Cc1cc2c(nc1-c1cccc(Cl)c1F)N(S(C)(=O)=O)CS2 [Example I-111],post-emergence activity against KCHSC in %,[1]; application rate 1280 g/ha,90%
same,pre-emergence activity against STEME in %,[2],90%
same,pre-emergence activity against ECHCG in %,[3],100%
O=C(N1CSc2cc(Br)c(-c3cccc(Cl)c3F)nc21)C12CCCC1C(Cl)=NO2 (stereo not drawn) [Example I-126],post-emergence activity against AMARE in %,[4]; application rate 320 g/ha,90%
same,pre-emergence activity against SETVI in %,[5]; application rate 1280 g/ha,90%
same,pre-emergence activity against AMARE in %,[6]; application rate 320 g/ha,90%
same,post-emergence activity against VERPE in %,[7],90%
same,pre-emergence activity against STEME in %,[2],90%
CCc1ccccc1-c1nc2c(cc1Br)SCN2B(N)N [Example I-080],pre-emergence activity against DIGSA in %,[8],100%
same,post-emergence activity against AMARE in %,[4]; application rate 1280 g/ha,90%
Cc1cc2c(nc1-c1cccc(F)c1F)N(C(=O)C(C)C)C[S+]2[O-] (stereo not drawn) [Example I-028],pest or weed control at 1280 g/ha,[8],100%
same,pest or weed control at 320 g/ha,[5]; [16],100%
same,pest or weed control at 1280 g/ha,[9]; [17],100%
same,pest or weed control at 320 g/ha,"[10]; Bassia scoparia, pre-emergence, 504 h, application rate 320 g/ha, read-out: pre-emergence activity against KCHSC in %",90%
same,pest or weed control at 320 g/ha,"[1]; Bassia scoparia, post-emergence, 504 h, application rate 320 g/ha, read-out: post-emergence activity against KCHSC in %",90%
same,pest or weed control at 320 g/ha,[6]; [18],90%
same,pest or weed control at 1280 g/ha,"[11]; Stellaria media, post-emergence, 504 h, read-out: post-emergence activity against STEME in %",90%
same,pest or weed control at 1280 g/ha,[2],90%
same,pest or weed control at 1280 g/ha,[12],90%
same,pest or weed control at 1280 g/ha,[13],100%
COC(=O)CCC(=O)N1CSc2cc(C)c(-c3ccc(F)cc3F)nc21 [Example I-084],pre-emergence activity against DIGSA in %,[8],100%
same,post-emergence activity against AMARE in %,[4]; application rate 1280 g/ha,90%
same,pre-emergence activity against SETVI in %,[5]; application rate 320 g/ha,100%
same,pre-emergence activity against POAAN in %,[9]; application rate 320 g/ha,100%
same,pre-emergence activity against KCHSC in %,[10]; application rate 1280 g/ha,90%
same,post-emergence activity against KCHSC in %,[1]; application rate 1280 g/ha,90%
same,pre-emergence activity against AMARE in %,[6]; application rate 1280 g/ha,90%
same,post-emergence activity against VERPE in %,[7],90%
same,post-emergence activity against STEME in %,[11],90%
same,pre-emergence activity against ECHCG in %,[3],100%
same,pre-emergence activity against LOLRI in %,[13],100%
Cc1cccc(-c2nc3c(cc2Br)SCN3B(N)N)c1C [Example I-105],post-emergence activity against AMARE in %,[4]; application rate 1280 g/ha,90%
CCS(=O)(=O)N1C[S+]([O-])c2cc(Br)c(-c3ccccc3Cl)nc21 (stereo not drawn) [Example I-134],pest or weed control at 1280 g/ha,[8],100%
same,pest or weed control at 1280 g/ha,"[5]; Setaria viridis, 504 h, application rate 1280 g/ha, read-out: pre-emergence activity against SETVI in %",100%
same,pest or weed control at 1280 g/ha,[9]; [17],100%
same,pest or weed control at 1280 g/ha,"[10]; Bassia scoparia, pre-emergence, 504 h, application rate 1280 g/ha, read-out: pre-emergence activity against KCHSC in %",90%
same,pest or weed control at 1280 g/ha,"[6]; Amaranthus retroflexus, 504 h, application rate 1280 g/ha, read-out: pre-emergence activity against AMARE in %",90%
same,pest or weed control at 1280 g/ha,[2],90%
same,pest or weed control at 1280 g/ha,[14],90%
same,pest or weed control at 1280 g/ha,[3],100%
N#CCS(=O)(=O)N1CSc2cc(Br)c(-c3cccc(Cl)c3F)nc21 [Example I-131],post-emergence activity against AMARE in %,[4]; application rate 1280 g/ha,90%
same,pre-emergence activity against AMARE in %,[6]; application rate 1280 g/ha,90%
same,post-emergence activity against VERPE in %,[7],90%
same,pre-emergence activity against STEME in %,[2],90%
Cc1ccccc1-c1nc2c(cc1C)[S+]([O-])CN2C(=O)C1CC1 (stereo not drawn) [Example I-063],pest or weed control at 1280 g/ha,[8],100%
same,pest or weed control at 320 g/ha,[5]; [16],100%
same,pest or weed control at 320 g/ha,"[9]; Poa annua, pre-emergence, 504 h, application rate 320 g/ha, read-out: pre-emergence activity against POAAN in %",100%
same,pest or weed control at 1280 g/ha,"[1]; Bassia scoparia, post-emergence, 504 h, application rate 1280 g/ha, read-out: post-emergence activity against KCHSC in %",90%
same,pest or weed control at 320 g/ha,[6]; [18],90%
same,pest or weed control at 1280 g/ha,"[7]; Veronica persica, post-emergence, 504 h, read-out: post-emergence activity against VERPE in %",90%
same,pest or weed control at 1280 g/ha,[15],90%
same,pest or weed control at 1280 g/ha,[2],90%
same,pest or weed control at 1280 g/ha,[3],100%
same,pest or weed control at 1280 g/ha,[13],100%
